Test results reported in the supplement of paper PMC12463676, “Small-molecule dissolution of stress granules by redox modulation benefits ALS models” (Nature Chemical Biology, 2025).

Compound: NC(=O)CCCCC1CCSS1 [lipoamide]
Assay: thermal stability z-score vs DMSO; higher = more thermally stabilized by treatment
Conditions: HeLa; lipoamide concentration 100 µM; arsenate co-treatment: 1 mM arsenate 1 h
Method: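 Cellular thermal proteome profiling in HeLa cells. Cells were treated with 100 µM lipoamide for 1 h, with or without 1 mM arsenate for a further 1 h, then heated to ten temperatures (37-66.3 °C), and soluble protein was quantified by TMT mass spectrometry relative to 0.1% DMSO controls. The thermal stability score (sum of log2 fold changes minus the abundance score) was transformed to a z-score; mean of n = 3 experiments.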
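Note: each temperature applied for 3 min, abundance score taken as mean log2 fold change at the two lowest temperatures, z-score obtained by mean subtraction and division by SD.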

UniProt Q08257, sequence (Q08257 whole entry): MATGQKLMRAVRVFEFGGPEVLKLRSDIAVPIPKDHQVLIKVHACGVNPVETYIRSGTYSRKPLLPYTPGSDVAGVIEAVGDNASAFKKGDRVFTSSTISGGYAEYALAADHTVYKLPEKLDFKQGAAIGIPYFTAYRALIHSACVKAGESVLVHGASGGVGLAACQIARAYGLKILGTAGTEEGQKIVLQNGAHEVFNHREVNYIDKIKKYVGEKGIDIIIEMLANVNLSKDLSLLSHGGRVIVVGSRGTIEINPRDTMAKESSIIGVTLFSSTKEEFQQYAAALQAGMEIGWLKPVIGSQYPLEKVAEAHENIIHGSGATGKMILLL
UniProt Q15046, sequence (Q15046 whole entry, looked up): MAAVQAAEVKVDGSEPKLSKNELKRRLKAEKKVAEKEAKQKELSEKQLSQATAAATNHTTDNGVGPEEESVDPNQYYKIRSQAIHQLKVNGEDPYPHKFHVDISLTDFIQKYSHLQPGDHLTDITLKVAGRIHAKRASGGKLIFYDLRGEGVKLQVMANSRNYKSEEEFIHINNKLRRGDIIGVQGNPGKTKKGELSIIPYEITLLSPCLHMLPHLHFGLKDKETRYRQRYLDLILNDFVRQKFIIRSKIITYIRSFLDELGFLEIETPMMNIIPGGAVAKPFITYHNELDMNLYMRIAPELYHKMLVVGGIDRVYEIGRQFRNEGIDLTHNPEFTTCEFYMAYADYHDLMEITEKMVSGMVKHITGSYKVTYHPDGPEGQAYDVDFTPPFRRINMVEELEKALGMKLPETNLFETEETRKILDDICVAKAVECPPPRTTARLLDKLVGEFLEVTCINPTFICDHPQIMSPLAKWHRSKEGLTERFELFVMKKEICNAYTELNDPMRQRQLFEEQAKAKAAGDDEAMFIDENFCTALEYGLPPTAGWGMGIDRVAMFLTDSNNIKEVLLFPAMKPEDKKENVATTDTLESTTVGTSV
UniProt Q9H3S7, sequence (Q9H3S7 whole entry): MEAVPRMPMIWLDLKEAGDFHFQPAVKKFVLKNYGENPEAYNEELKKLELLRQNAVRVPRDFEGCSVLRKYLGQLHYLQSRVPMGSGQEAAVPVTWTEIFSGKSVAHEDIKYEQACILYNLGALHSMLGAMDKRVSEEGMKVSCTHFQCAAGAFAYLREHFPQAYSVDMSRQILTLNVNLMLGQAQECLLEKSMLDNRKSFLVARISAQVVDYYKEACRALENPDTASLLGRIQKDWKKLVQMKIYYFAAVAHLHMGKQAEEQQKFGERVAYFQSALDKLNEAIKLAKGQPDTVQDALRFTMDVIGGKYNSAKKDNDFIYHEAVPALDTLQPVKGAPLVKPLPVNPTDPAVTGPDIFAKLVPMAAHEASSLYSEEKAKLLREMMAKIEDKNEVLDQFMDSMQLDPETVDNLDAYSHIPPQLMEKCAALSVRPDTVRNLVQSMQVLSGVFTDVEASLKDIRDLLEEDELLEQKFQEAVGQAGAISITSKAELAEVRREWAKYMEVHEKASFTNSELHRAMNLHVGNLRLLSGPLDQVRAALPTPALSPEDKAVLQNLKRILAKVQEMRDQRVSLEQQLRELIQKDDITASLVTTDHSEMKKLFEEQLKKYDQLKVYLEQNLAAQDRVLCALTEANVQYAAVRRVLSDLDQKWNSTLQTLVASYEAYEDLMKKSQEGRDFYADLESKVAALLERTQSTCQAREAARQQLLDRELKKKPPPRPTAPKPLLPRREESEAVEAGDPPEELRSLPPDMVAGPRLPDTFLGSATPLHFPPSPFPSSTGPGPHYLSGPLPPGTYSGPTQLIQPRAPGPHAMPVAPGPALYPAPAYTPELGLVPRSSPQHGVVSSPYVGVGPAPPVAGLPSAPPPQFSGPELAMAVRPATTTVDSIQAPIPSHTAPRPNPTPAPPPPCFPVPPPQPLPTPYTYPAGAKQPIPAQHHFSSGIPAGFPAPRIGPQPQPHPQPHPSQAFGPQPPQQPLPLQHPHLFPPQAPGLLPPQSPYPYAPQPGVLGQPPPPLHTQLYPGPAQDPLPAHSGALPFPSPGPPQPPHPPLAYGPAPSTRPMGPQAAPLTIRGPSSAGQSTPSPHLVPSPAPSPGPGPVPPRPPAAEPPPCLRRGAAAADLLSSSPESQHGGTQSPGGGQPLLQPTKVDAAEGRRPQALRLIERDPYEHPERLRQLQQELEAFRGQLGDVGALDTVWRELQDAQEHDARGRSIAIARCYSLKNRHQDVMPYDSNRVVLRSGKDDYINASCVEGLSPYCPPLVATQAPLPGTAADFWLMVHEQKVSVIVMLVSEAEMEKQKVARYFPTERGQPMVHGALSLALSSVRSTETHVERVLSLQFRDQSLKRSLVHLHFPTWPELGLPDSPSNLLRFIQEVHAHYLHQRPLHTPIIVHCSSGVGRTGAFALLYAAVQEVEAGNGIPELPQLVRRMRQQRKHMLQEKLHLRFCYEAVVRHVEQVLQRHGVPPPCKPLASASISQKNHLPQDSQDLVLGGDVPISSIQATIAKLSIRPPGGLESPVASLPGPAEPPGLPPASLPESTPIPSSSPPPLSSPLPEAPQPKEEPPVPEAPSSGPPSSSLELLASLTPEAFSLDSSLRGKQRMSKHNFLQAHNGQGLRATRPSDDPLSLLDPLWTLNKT
UniProt P16383, sequence (P16383 whole entry): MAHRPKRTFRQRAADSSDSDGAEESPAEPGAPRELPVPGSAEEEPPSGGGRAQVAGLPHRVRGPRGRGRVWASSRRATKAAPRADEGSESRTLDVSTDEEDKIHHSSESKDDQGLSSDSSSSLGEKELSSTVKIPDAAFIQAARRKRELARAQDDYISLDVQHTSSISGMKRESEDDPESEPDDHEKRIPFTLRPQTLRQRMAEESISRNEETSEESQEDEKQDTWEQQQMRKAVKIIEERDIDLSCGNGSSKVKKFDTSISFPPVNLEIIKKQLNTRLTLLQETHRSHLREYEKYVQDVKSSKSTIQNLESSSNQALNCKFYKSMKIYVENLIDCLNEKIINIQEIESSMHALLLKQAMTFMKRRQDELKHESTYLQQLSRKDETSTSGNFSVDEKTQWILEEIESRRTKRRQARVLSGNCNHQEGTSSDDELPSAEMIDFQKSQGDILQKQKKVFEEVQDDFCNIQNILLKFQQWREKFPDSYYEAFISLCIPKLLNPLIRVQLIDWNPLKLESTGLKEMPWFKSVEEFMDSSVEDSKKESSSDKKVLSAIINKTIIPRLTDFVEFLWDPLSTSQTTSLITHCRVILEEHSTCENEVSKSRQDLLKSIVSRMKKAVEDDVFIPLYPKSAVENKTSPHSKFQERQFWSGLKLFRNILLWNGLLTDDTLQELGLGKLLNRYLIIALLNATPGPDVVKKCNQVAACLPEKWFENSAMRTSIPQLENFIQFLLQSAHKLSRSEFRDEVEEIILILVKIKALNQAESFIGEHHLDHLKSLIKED
UniProt P78332, sequence (P78332 whole entry): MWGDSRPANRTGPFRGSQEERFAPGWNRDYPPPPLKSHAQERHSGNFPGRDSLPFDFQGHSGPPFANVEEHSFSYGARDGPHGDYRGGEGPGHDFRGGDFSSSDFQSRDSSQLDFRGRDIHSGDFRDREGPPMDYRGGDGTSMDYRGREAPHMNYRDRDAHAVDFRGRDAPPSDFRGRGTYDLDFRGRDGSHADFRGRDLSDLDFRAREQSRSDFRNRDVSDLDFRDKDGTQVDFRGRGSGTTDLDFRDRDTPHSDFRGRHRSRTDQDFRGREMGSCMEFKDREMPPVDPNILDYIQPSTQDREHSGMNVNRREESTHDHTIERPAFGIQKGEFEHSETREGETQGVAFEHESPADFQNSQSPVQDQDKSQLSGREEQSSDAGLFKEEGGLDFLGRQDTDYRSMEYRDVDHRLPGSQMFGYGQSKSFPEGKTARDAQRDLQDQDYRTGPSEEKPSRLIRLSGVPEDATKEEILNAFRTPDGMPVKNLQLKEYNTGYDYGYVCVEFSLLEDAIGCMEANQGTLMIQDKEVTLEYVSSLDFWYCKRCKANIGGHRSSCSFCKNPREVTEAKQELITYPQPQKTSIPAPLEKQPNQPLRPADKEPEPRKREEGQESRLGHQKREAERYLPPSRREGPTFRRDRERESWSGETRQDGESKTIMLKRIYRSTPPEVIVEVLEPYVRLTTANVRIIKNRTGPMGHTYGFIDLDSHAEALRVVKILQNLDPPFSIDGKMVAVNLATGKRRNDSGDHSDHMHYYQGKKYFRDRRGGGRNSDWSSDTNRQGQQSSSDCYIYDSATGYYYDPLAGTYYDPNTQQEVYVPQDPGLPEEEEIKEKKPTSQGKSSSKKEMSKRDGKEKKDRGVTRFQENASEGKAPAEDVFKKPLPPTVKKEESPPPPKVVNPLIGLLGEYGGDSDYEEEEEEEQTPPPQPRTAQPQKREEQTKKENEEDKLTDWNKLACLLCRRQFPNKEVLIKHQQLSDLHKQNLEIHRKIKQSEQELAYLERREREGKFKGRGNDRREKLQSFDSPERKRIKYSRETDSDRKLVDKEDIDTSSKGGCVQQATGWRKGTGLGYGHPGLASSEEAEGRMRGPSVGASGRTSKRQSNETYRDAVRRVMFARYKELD
UniProt P04040, sequence (P04040 whole entry): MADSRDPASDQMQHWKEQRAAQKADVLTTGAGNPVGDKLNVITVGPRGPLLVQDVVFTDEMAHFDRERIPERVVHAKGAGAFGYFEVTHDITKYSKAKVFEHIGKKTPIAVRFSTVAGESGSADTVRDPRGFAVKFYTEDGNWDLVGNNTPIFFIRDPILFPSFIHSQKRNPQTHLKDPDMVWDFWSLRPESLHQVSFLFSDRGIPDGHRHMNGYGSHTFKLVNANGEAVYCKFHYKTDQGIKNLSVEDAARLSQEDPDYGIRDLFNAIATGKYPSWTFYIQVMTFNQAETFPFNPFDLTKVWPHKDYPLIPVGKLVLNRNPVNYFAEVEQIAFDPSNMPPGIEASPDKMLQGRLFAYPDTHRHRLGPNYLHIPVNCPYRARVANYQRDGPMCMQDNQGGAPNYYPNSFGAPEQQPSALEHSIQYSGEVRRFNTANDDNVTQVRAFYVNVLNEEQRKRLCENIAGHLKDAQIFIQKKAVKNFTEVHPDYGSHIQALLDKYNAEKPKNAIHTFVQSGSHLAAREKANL

Target	thermal stability z-score
NOS1AP (UniProt O75052)	0.676
ETFA (UniProt P13804)	-0.622
SCNM1 (UniProt Q9BWG6)	-0.00102
SH3GLB1 (UniProt Q9Y371)	-0.179
RNF139 (UniProt Q8WU17)	-1.16
KATNB1 (UniProt Q9BVA0)	0.145
FAM50A (UniProt Q14320)	-0.0555
PIP4K2B (UniProt P78356)	0.0141
ADRBK1 (UniProt P25098)	0.556
UFC1 (UniProt Q9Y3C8)	0.984
C17ORF62 (UniProt Q9BQA9)	0.898
C9ORF64 (UniProt Q5T6V5)	-0.191
PTPN23 (UniProt Q9H3S7)	-0.214
RPUSD2 (UniProt Q8IZ73)	-0.528
YAP1 (UniProt P46937)	0.509
WARS (UniProt P23381)	0.561
ZAK (UniProt Q9NYL2)	-0.237
DDX47 (UniProt Q9H0S4)	1.72
SLCO4A1 (UniProt Q96BD0)	0.0123
KARS (UniProt Q15046)	-0.646
PIGT (UniProt Q969N2)	-3.54
MAP2K6 (UniProt P52564)	-0.0718
SLC26A6 (UniProt Q9BXS9)	0.538
APEH (UniProt P13798)	0.391

Target	thermal stability z-score
USP13 (UniProt Q92995)	0.464
CAT (UniProt P04040)	0.883
DCUN1D5 (UniProt Q9BTE7)	-0.0389
DIS3L2 (UniProt Q8IYB7)	-0.225
LRSAM1 (UniProt Q6UWE0)	-0.763
NSMCE2 (UniProt Q96MF7)	0.278
SLMAP (UniProt Q14BN4)	-0.467
GCFC2 (UniProt P16383)	0.317
DAG1 (UniProt Q14118)	-0.341
UBE2O (UniProt Q9C0C9)	0.0608
RERE (UniProt Q9P2R6)	0.0956
ACAD8 (UniProt Q9UKU7)	0.0722
KCNK1 (UniProt O00180)	-1.31
MTPN (UniProt P58546)	0.382
CCNDBP1 (UniProt O95273)	0.104
NFYA (UniProt P23511)	0.401
TROVE2 (UniProt P10155)	-0.23
VIPAS39 (UniProt Q9H9C1)	-0.0571
PRPF40A (UniProt O75400)	-0.0187
UHRF1BP1 (UniProt Q6BDS2)	-0.235
KIFC1 (UniProt Q9BW19)	0.126
HERC2 (UniProt O95714)	-0.947
DNAJA1 (UniProt P31689)	-1.05
MAP2K2 (UniProt P36507)	-0.441

Target	thermal stability z-score
COG1 (UniProt Q8WTW3)	-0.441
SERINC1 (UniProt Q9NRX5)	0.282
ZHX3 (UniProt Q9H4I2)	-0.187
NELFB (UniProt Q8WX92)	-0.286
MIB1 (UniProt Q86YT6)	-0.621
COPE (UniProt O14579)	0.165
SDE2 (UniProt Q6IQ49)	-0.399
SRRT (UniProt Q9BXP5)	0.06
TXNL4A (UniProt P83876)	0.343
PTPRJ (UniProt Q12913)	1.03
RALB (UniProt P11234)	0.25
UBE3C (UniProt Q15386)	-0.19
HECTD3 (UniProt Q5T447)	-0.331
ROR2 (UniProt Q01974)	0.3
INTS7 (UniProt Q9NVH2)	0.874
DOCK5 (UniProt Q9H7D0)	-0.433
HAUS8 (UniProt Q9BT25)	0.268
GDA (UniProt Q9Y2T3)	0.244
RBM6 (UniProt P78332)	-0.00588
CRYZ (UniProt Q08257)	0.232
RAE1 (UniProt P78406)	0.676
LOC102723897|WASH3P|WASH2P	0.179
NARS2 (UniProt Q96I59)	-0.454

Same assay, conditions: HeLa; lipoamide concentration 100 µM; arsenate co-treatment: none

Target	thermal stability z-score
NOS1AP (UniProt O75052)	-0.0802
ETFA (UniProt P13804)	0.0342
SCNM1 (UniProt Q9BWG6)	0.278
SH3GLB1 (UniProt Q9Y371)	-0.0481
RNF139 (UniProt Q8WU17)	-0.12
KATNB1 (UniProt Q9BVA0)	0.401
FAM50A (UniProt Q14320)	0.352
PIP4K2B (UniProt P78356)	0.0907
ADRBK1 (UniProt P25098)	0.421
UFC1 (UniProt Q9Y3C8)	0.773
C17ORF62 (UniProt Q9BQA9)	0.761
C9ORF64 (UniProt Q5T6V5)	0.121
PTPN23 (UniProt Q9H3S7)	-0.0347
RPUSD2 (UniProt Q8IZ73)	0.461
YAP1 (UniProt P46937)	0.727
WARS (UniProt P23381)	0.612
ZAK (UniProt Q9NYL2)	-0.237
DDX47 (UniProt Q9H0S4)	0.253
SLCO4A1 (UniProt Q96BD0)	-0.101
KARS (UniProt Q15046)	-0.663
PIGT (UniProt Q969N2)	-2.49
MAP2K6 (UniProt P52564)	0.061
SLC26A6 (UniProt Q9BXS9)	1.4
APEH (UniProt P13798)	0.223

Target	thermal stability z-score
USP13 (UniProt Q92995)	0.0604
CAT (UniProt P04040)	1.41
DCUN1D5 (UniProt Q9BTE7)	0.215
DIS3L2 (UniProt Q8IYB7)	0.566
LRSAM1 (UniProt Q6UWE0)	-0.714
NSMCE2 (UniProt Q96MF7)	0.339
SLMAP (UniProt Q14BN4)	-0.173
GCFC2 (UniProt P16383)	0.441
DAG1 (UniProt Q14118)	-0.236
UBE2O (UniProt Q9C0C9)	0.277
RERE (UniProt Q9P2R6)	-0.103
ACAD8 (UniProt Q9UKU7)	-0.0632
KCNK1 (UniProt O00180)	0.686
MTPN (UniProt P58546)	0.145
CCNDBP1 (UniProt O95273)	-0.0265
NFYA (UniProt P23511)	-0.0763
TROVE2 (UniProt P10155)	-0.235
VIPAS39 (UniProt Q9H9C1)	0.338
PRPF40A (UniProt O75400)	0.00497
UHRF1BP1 (UniProt Q6BDS2)	0.193
KIFC1 (UniProt Q9BW19)	0.0537
HERC2 (UniProt O95714)	-1.04
DNAJA1 (UniProt P31689)	-0.818
MAP2K2 (UniProt P36507)	-0.022

Target	thermal stability z-score
COG1 (UniProt Q8WTW3)	-0.42
SERINC1 (UniProt Q9NRX5)	-0.488
ZHX3 (UniProt Q9H4I2)	-0.116
NELFB (UniProt Q8WX92)	0.576
MIB1 (UniProt Q86YT6)	-0.586
COPE (UniProt O14579)	0.681
SDE2 (UniProt Q6IQ49)	-0.282
SRRT (UniProt Q9BXP5)	0.206
TXNL4A (UniProt P83876)	-0.0818
PTPRJ (UniProt Q12913)	-0.0729
RALB (UniProt P11234)	-0.129
UBE3C (UniProt Q15386)	0.18
HECTD3 (UniProt Q5T447)	-0.0311
ROR2 (UniProt Q01974)	0.449
INTS7 (UniProt Q9NVH2)	-0.103
DOCK5 (UniProt Q9H7D0)	-0.478
HAUS8 (UniProt Q9BT25)	0.632
GDA (UniProt Q9Y2T3)	0.292
RBM6 (UniProt P78332)	0.0644
CRYZ (UniProt Q08257)	0.229
RAE1 (UniProt P78406)	1.04
LOC102723897|WASH3P|WASH2P	-0.15
NARS2 (UniProt Q96I59)	0.256

Compound: O=[As]([O-])(O)O.[K+] [potassium arsenate]
Assay: as above
Conditions: HeLa; arsenate concentration 1 mM
Method: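 Cellular thermal proteome profiling in HeLa cells treated with 1 mM arsenate for 1 h (DMSO pretreatment), heated to ten temperatures (37-66.3 °C). Soluble protein was quantified by TMT mass spectrometry relative to DMSO controls; the thermal stability score was transformed to a z-score; mean of n = 3 experiments.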

Target	thermal stability z-score
NOS1AP (UniProt O75052)	-1.45
ETFA (UniProt P13804)	-1.17
SCNM1 (UniProt Q9BWG6)	0.418
SH3GLB1 (UniProt Q9Y371)	0.658
RNF139 (UniProt Q8WU17)	0.947
KATNB1 (UniProt Q9BVA0)	-0.452
FAM50A (UniProt Q14320)	0.455
PIP4K2B (UniProt P78356)	0.0439
ADRBK1 (UniProt P25098)	0.052
UFC1 (UniProt Q9Y3C8)	0.281
C17ORF62 (UniProt Q9BQA9)	1.37
C9ORF64 (UniProt Q5T6V5)	-0.254
PTPN23 (UniProt Q9H3S7)	0.691
RPUSD2 (UniProt Q8IZ73)	0.29
YAP1 (UniProt P46937)	0.0991
WARS (UniProt P23381)	0.737
ZAK (UniProt Q9NYL2)	-0.105
DDX47 (UniProt Q9H0S4)	0.634
SLCO4A1 (UniProt Q96BD0)	0.0663
KARS (UniProt Q15046)	1.5
PIGT (UniProt Q969N2)	-0.105
MAP2K6 (UniProt P52564)	-0.021
SLC26A6 (UniProt Q9BXS9)	0.375
APEH (UniProt P13798)	0.225

Target	thermal stability z-score
USP13 (UniProt Q92995)	-0.0408
CAT (UniProt P04040)	0.346
DCUN1D5 (UniProt Q9BTE7)	-0.507
DIS3L2 (UniProt Q8IYB7)	0.155
LRSAM1 (UniProt Q6UWE0)	-0.676
NSMCE2 (UniProt Q96MF7)	0.541
SLMAP (UniProt Q14BN4)	1.45
GCFC2 (UniProt P16383)	-0.00138
DAG1 (UniProt Q14118)	0.184
UBE2O (UniProt Q9C0C9)	0.509
RERE (UniProt Q9P2R6)	0.00489
ACAD8 (UniProt Q9UKU7)	-0.989
KCNK1 (UniProt O00180)	-1.18
MTPN (UniProt P58546)	-0.432
CCNDBP1 (UniProt O95273)	0.133
NFYA (UniProt P23511)	-0.528
TROVE2 (UniProt P10155)	-0.238
VIPAS39 (UniProt Q9H9C1)	0.358
PRPF40A (UniProt O75400)	0.00775
UHRF1BP1 (UniProt Q6BDS2)	0.149
KIFC1 (UniProt Q9BW19)	-0.106
HERC2 (UniProt O95714)	0.0415
DNAJA1 (UniProt P31689)	-0.452
MAP2K2 (UniProt P36507)	0.0169

Target	thermal stability z-score
COG1 (UniProt Q8WTW3)	0.183
SERINC1 (UniProt Q9NRX5)	0.329
ZHX3 (UniProt Q9H4I2)	-0.227
NELFB (UniProt Q8WX92)	-0.0666
MIB1 (UniProt Q86YT6)	-1.05
COPE (UniProt O14579)	0.0279
SDE2 (UniProt Q6IQ49)	-1.16
SRRT (UniProt Q9BXP5)	-0.751
TXNL4A (UniProt P83876)	-0.461
PTPRJ (UniProt Q12913)	-0.764
RALB (UniProt P11234)	0.0205
UBE3C (UniProt Q15386)	0.79
HECTD3 (UniProt Q5T447)	0.272
ROR2 (UniProt Q01974)	-0.811
INTS7 (UniProt Q9NVH2)	-0.0595
DOCK5 (UniProt Q9H7D0)	-0.0423
HAUS8 (UniProt Q9BT25)	1.71
GDA (UniProt Q9Y2T3)	0.0168
RBM6 (UniProt P78332)	0.000188
CRYZ (UniProt Q08257)	0.207
RAE1 (UniProt P78406)	0.662
LOC102723897|WASH3P|WASH2P	0.051
NARS2 (UniProt Q96I59)	-0.19
